In patent US10779537B2, “1H-pyrrolopyridine compound, N-oxide thereof or salt thereof, agricultural and horticultural insecticide comprising the compound, and method for using the insecticide” (Nihon Nohyaku Co., Ltd., priority 2016, dated 2020):

Columns and labels:
Plutella xylostella = assay: Insecticidal test on Plutella xylostella (dip of Chinese cabbage seedlings with laid eggs); format: in vivo; details: 144 h, seedlings with laid eggs dipped about 30 seconds, 25° C., 6 days after dip treatment, criteria of Test Example 2, read-out: insecticidal efficacy (corrected mortality rate, hatched larvae)
Description: Insecticidal Test on Plutella xylostella
Adults of Plutella xylostella were released onto Chinese cabbage seedlings and allowed to lay eggs thereon. At 2 days after the release of the adults, the Chinese cabbage seedlings with laid eggs were dipped for about 30 seconds in agrochemical dispersions diluted to 500 ppm, each of which contained a different condensed heterocyclic compound represented by the general formula (1) of the present invention as an active ingredient. After air-dried, the seedlings were kept in a thermostatic chamber at 25° C. At 6 days after the dip treatment, the number of hatched larvae per plot was counted, the mortality rate was calculated according to the formula shown below, and the insecticidal efficacy was evaluated according to the criteria of Test Example 2. This test was conducted in triplicate using 10 adults of Plutella xylostella per plot. Corrected mortality rate (%)=100×(Number of hatched larvae in a non-treatment plot−Number of hatched larvae in a treatment plot)/Number of hatched larvae in a non-treatment plot [Math. 3]

Laodelphax striatellus = assay: Insecticidal test on Laodelphax striatellus (rice seedling dip); format: in vivo; details: 192 h, rice seedlings dipped 30 seconds, ten 3rd-instar larvae, 8 days after inoculation, read-out: insecticidal efficacy (corrected mortality rate)
Description: Insecticidal Test on Laodelphax striatellus
The condensed heterocyclic compounds represented by the general formula (1) of the present invention or salts thereof were separately dispersed in water and diluted to 500 ppm. Rice plant seedlings (variety: Nihonbare) were dipped in the agrochemical dispersions for 30 seconds. After air-dried, each seedling was put into a separate glass test tube and inoculated with ten 3rd-instar larvae of Laodelphax striatellus, and then the glass test tubes were capped with cotton plugs. At 8 days after the inoculation, the numbers of surviving larvae and dead larvae were counted, the corrected mortality rate was calculated according to the formula shown below, and the insecticidal efficacy was evaluated according to the criteria shown below. Corrected mortality rate (%)=100×(Survival rate in a non-treatment plot−Survival rate in a treatment plot)/Survival rate in a non-treatment plot [Math. 2] Corrected Mortality Rate A: the corrected mortality rate is 100%. B: the corrected mortality rate is 90 to 99%. C: the corrected mortality rate is 80 to 89%. D: the corrected mortality rate is 50 to 79%.

Structure (SMILES) | mortality at 500 ppm (Plutella xylostella) [%] | mortality at 500 ppm (Laodelphax striatellus) [%]
CCS(=O)(=O)c1cc(C(F)(F)F)cnc1-c1[nH]c2cc(C(F)(F)F)cnc2c1F [Compound 1-75, 2-(3-ethylsulfonyl-5-trifluoromethylpyridin-2-yl)-3-fluoro-6-trifluoromethyl-1H-pyrrolo[3,2-b]pyridine] | 100 | 100
CCS(=O)(=O)c1cc(C(F)(F)F)cnc1-c1[nH]c2cc(C(F)(F)F)cnc2c1Cl [Compound 1-76, 2-(3-ethylsulfonyl-5-trifluoromethylpyridin-2-yl)-3-chloro-6-trifluoromethyl-1H-pyrrolo[3,2-b]pyridine] | 100 | 100
CCS(=O)(=O)c1cc(C(F)(F)F)cnc1-c1[nH]c2cc(C(F)(F)F)cnc2c1Br [Compound 1-77, 2-(3-ethylsulfonyl-5-trifluoromethylpyridin-2-yl)-3-bromo-6-trifluoromethyl-1H-pyrrolo[3,2-b]pyridine] | 100 | 100
CCS(=O)(=O)c1cc(C(F)(F)F)cnc1-c1c(Cl)c2ncc(C(F)(F)F)cc2n1C(C)=O [Compound 3-3, 1-acetyl-2-(3-ethylsulfonyl-5-trifluoromethylpyridin-2-yl)-3-chloro-6-trifluoromethyl-1H-pyrrolo[3,2-b]pyridine] | 100 | 100
